Where “and” joins values, the source holds several entries; their conditions need not be identical. Equal values may be shown once.
Columns and labels:
[1] = target: KOD DNA polymerase (Thermococcus kodakarensis, UniProt P77933, DEL407-766/DEL853-1389); test: Long PCR using KOD DNA polymerase (Examples 2-5 to 2-8); assay type: biochemical, Thermococcus kodakaraensis KOD1
Protocol: Oxalate ion and betaine were investigated for their synergistic effectiveness in long PCR amplification of a target DNA of more than 20 kb derived from the human genome using KOD DNA polymerase, successful amplification of which using α-type enzyme alone has not been reported. Potassium oxalate was added to the PCR buffer supplied with KOD-plus (TOYOBO CO.,LTD.) to attain a final concentration of 2 mM. Also used were 0.4 mM dNTPs, 0.3 μM of a pair of primers of SEQ ID Nos:20 and 21, and 2.0 U KOD DNA polymerase. 200 ng of genomic DNA derived from human cell line K562 was used as a template. This reaction mixture was subjected to PCR by using GeneAmp2400 (PE Applied Biosystems) to investigate the influence on the PCR results of varying the concentration of betaine. The PCR conditions were as follows: 1 preliminary reaction of 94° C. for 2 minutes; 5 cycles of 98° C. for 10 seconds and 74° C. for 18 minutes; 5 cycles of 98° C. for 10 seconds and 72° C. for 18 minutes; 5 cycles of 98° C. for 10 seconds and 70° C. for 18 minutes; 25 cycles of 98° C. for 10 second and 68° C. for 18 minutes; and 1 additional reaction of 68° C. for 7 minutes.
Oxalate ion and betaine were investigated for their synergistic effectiveness in long PCR amplification of a target DNA of more than 20 kb derived from the human genome using KOD DNA polymerase, successful amplification of which using α-type enzyme alone has not been reported. Betaine was added to the PCR buffer supplied with KOD-plus (TOYOBO CO., LTD.) to attain a final concentration of 1.5 M. Also used were 2.0 U KOD DNA polymerase, 0.4 mM dNTPs and 0.3 μM of a pair of primers of SEQ ID Nos:22 and 23 respectively for the PCR amplification of 22 kb DNA in tPA gene, and SEQ ID Nos:22 and 24 respectively for the PCR amplification of tPA 24 kb DNA. 200 ng of genomic DNA derived from human cell line K562 was used as a template. This reaction mixture was subjected to PCR by using GeneAmp2400 (PE Applied Biosystems) to investigate the influence on the PCR results of varying the concentration of potassium oxalate. The PCR conditions were as follows: 1 preliminary reaction of 94° C. for 2 minutes; 5 cycles of 98° C. for 10 seconds and 74° C. for 18 minutes; 5 cycles of 98° C. for 10 seconds and 72° C. for 18 minutes; 5 cycles of 98° C. for 10 seconds and 70° C. for 18 minutes; 25 cycles of 98° C. for 10 seconds and 68° C. of 18 minutes; and 1 additional reaction of 68° C. for 7 minutes.
Under the aforementioned conditions in which oxalate ions and betaine are present, the effect of hot start PCR using antibodies in long PCR using KOD DNA polymerase was investigated. Potassium oxalate and betaine were added to the PCR buffer supplied with KOD-plus (TOYOBO CO.LTD.) to attain a final oxalate concentration of 2 mM and a final betaine concentration of 1.5 M. Also used were 2.0 U KOD DNA polymerase, 0.4 mM dNTPs and 0.3 μM of a pair of primers of SEQ ID Nos:22 and 25 for PCR amplification of tPA 12 kb DNA; SEQ ID Nos:22 and 26 for PCR amplification of tPA 15 kb DNA; SEQ ID Nos:22 and 27 for PCR amplification of tPA 18 kb DNA; SEQ ID Nos:22 and 23 for PCR amplification of tPA 22 kb DNA; SEQ ID Nos:22 and 24 for PCR amplification of tPA 24 kb DNA; and SEQ ID Nos:28 and 29 for PCR amplification of β-globin 17.5 kb DNA. 200 ng of genomic DNA derived from human cell line K562 was used as a template. […]

[2] = target: T1, KOD-plus DNA polymerase (Thermococcus kodakarensis, UniProt P77933, DEL407-766/DEL853-1389); assay type: biochemical, Thermococcus kodakaraensis KOD1; conditions: salt at 6 mM of ion equivalent, FIG. 9
T1 construct: purchased Toyobo
T1 sequence (P77933 other isoform, or with tags, fused parts or gaps DEL407-766/DEL853-1389): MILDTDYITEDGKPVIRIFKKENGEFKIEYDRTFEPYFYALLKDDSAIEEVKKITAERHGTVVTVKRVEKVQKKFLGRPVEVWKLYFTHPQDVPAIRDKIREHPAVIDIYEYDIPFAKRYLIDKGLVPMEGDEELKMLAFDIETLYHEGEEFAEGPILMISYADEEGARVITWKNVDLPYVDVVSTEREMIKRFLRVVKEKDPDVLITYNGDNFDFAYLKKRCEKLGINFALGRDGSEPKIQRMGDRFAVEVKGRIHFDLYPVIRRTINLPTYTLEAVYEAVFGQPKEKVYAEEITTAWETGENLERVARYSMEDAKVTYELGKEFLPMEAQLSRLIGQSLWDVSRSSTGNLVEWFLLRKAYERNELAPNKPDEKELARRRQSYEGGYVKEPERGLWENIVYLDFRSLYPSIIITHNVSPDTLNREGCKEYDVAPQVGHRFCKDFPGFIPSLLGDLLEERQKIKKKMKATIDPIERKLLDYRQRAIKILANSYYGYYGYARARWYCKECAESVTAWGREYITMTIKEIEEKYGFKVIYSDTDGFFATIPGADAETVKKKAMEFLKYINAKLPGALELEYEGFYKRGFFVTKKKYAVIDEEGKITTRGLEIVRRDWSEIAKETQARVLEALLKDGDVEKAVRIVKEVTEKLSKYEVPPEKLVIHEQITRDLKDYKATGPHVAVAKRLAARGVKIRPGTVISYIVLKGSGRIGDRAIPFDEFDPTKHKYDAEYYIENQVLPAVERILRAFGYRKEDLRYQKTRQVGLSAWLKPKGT

[3] = test system: EX-Taq DNA polymerase; test: PCR using EX-Taq DNA polymerase with added salts (Examples 1-1 to 1-3); assay type: biochemical
Protocol: The effect produced by the addition of oxalate ions was investigated in the PCR using EX-Taq DNA polymerase. A PCR buffer supplied with EX-Taq (TAKARA) and 0.3 μM of a pair of primers of SEQ ID Nos:8 and 9 and 0.2 mM dNTPs were used. PCR was performed by using 1.0 U EX-Taq DNA polymerase and 20 ng of genomic DNA derived from human cell line K562 as a template, with the influence on the PCR result caused by varying the concentration of added oxalate ion being investigated. The PCR conditions were as follows: 1 preliminary reaction of 94° C. for 2 minutes, and then 35 cycles of 94° C. for 15 seconds, 60° C. for 30 seconds and 68° C. for 8.5 minutes. This PCR amplification was performed by using GeneAmp2400 (PE Applied Biosystems).
Salts (potassium chloride, potassium acetate, potassium oxalate, sodium oxalate, potassium sulfate) were investigated for their effectiveness in PCR using EX-Taq DNA polymerase under the same conditions as Example 1. Each salts was used in an amount of 4 to 6 mM of ion equivalent

[4] = 2 mM potassium oxalate, target of more than 20 kb, FIG. 15

Sequence of KOD DNA polymerase (P77933 other isoform, or with tags, fused parts or gaps DEL407-766/DEL853-1389): as above

SMILES | betaine concentration at which sufficient amplification of both target DNAs was observed ([1]; 2 mM potassium oxalate, tPA 9 kb and 12 kb, FIG. 18) | betaine concentration at which amplification of the target DNA was not observed [1, 4] [M] | betaine concentration at which sufficient amplification was found [1, 4] | amplification of target DNA (electrophoresis pattern) [2] | amplification of target DNA (electrophoresis pattern) ([3]; carboxylate salts, FIG. 3) | amplification of target DNA (electrophoresis pattern) ([3]; salt at 4 to 6 mM of ion equivalent, FIG. 2) | potassium oxalate concentration at which amplification was confirmed ([1]; 1.5 M betaine, tPA 22 kb DNA, FIG. 16) [mM] | potassium oxalate concentration at which slight amplification was observed ([1]; 1.5 M betaine, tPA 24 kb DNA, FIG. 16)
C[N+](C)(C)CC(=O)[O-] [betaine, trimethylglycine] | 1 M and 1.5 M | ≤ 1.2 | 1.4 M and 1.6 M |  |  |  |  | 
O=C([O-])C(=O)[O-].[K+].[K+] [potassium oxalate] |  |  |  | Amplification was observed | amplification of the target DNA was observed | Amplification was observed | 2 | 1.5 mM and 2.0 mM

— patent publication US20050069887A1, “Dna synthesis promoters dna polymerase-associated factors and utilization thereof” (priority 2001, published 2005)
